Results from ChEMBL document CHEMBL1250526, “Delphinidin, a dietary anthocyanidin in berry fruits, inhibits human glyoxalase I” (Bioorg Med Chem, 2010).
Activity calls are given as the source filed them. The calls are words filed in the database; no cut-off is given here.

What was measured:
HL-60 [1] = assay: Induction of apoptosis in human HL60 cells assessed as nucleosomal DNA fragmentation after 48 hrs using ethidium bromide staining by agarose gel electrophoresis; format: functional, cell-based
HL-60 [2] = assay: Antiproliferative activity against human HL60 cells at up to 100 uM by MTS assay; format: functional, cell-based; details: TDE = time-dependent effect
HL-60 [3] = assay: Antiproliferative activity against human HL60 cells after 48 hrs by MTS assay; format: functional, cell-based
HL-60 [4] = assay: Antiproliferative activity against human HL60 cells after 24 hrs by MTS assay; format: functional, cell-based; details: HL-60, 24 h
HL-60 [5] = assay: Induction of apoptosis in human HL60 cells assessed as nucleosomal DNA fragmentation at up to 100 uM using ethidium bromide staining by agarose gel electrophoresis; format: functional, cell-based; details: TDE = time-dependent effect
Lactoylglutathione lyase = Lactoylglutathione lyase (Homo sapiens, UniProt Q04760); assay: Inhibition of human recombinant glyoxalase 1 assessed as S-D-lactoylglutathione after 15 mins by spectrophotometric analysis
Sequence of Lactoylglutathione lyase (Q04760 whole entry): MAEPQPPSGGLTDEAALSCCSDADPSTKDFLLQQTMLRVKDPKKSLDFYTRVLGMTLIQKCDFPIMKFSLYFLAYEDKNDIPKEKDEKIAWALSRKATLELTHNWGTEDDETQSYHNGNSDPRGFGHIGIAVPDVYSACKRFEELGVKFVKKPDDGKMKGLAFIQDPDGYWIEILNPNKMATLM

HL-60 [6] = assay: Antiproliferative activity against human HL60 cells at up to 100 uM after 48 hrs by MTS assay; format: functional, cell-based

IC50 (HL-60 [3]; HL-60, 48 h) [µM]	IC50 (HL-60 [4]) [µM]	IC50 (Lactoylglutathione lyase) [µM]	Compound	Activity (HL-60 [1])	Activity (HL-60 [2])	Activity (HL-60 [3])	Activity (HL-60 [5])	Activity (HL-60 [6])
40	80	1.9	Oc1cc(O)c2cc(O)c(-c3cc(O)c(O)c(O)c3)[o+]c2c1 [DELPHINIDIN CHLORIDE]	Dose-dependent effect	tde	Dose-dependent effect	tde	–
–	–	11.7	Oc1cc(O)c2cc(O)c(-c3ccc(O)c(O)c3)[o+]c2c1 [CYANIDIN CHLORIDE]	–	–	–	–	Active
–	–	16.4	Oc1ccc(-c2[o+]c3cc(O)cc(O)c3cc2O)cc1 [PELARGONIDIN CHLORIDE]	–	–	–	–	Active
